Data as given in the OligoGym collection.
HELM strings list units from the 5' end as sugar, base in round brackets, then linkage (d deoxyribose, r ribose, m 2'-O-methyl, p phosphodiester). Strings are as the collection lists them; they lack the last nucleoside at the 3' end of the tested compound. [moe] = 2'-O-(2-methoxyethyl) (MOE); [sp] = phosphorothioate linkage; [m5C] = 5-methylcytosine

Biological target: SCN2A
Experiment: mouse, dose not given
Conditions: ASO

Substance	3 h FOB score
RNA1{[moe]([m5C])[sp].[moe](A)p.[moe](T)p.[moe](G)p.[moe](T)[sp].d(A)[sp].d(A)[sp].d([m5C])[sp].d([m5C])[sp].d(T)[sp].d(T)[sp].d(T)[sp].d(A)[sp].[moe](T)p.[moe](A)p.[moe]([m5C])[sp].[moe](A)}$$$$ (last 3' nucleoside missing)	0 score 0-7
RNA1{[moe]([m5C])[sp].[moe](A)p.[moe](T)p.[moe](G)p.[moe](T)p.[moe](A)[sp].d(A)[sp].d([m5C])[sp].d([m5C])[sp].d(T)[sp].d(T)[sp].d(T)[sp].d(A)[sp].d(T)[sp].[moe](A)p.[moe]([m5C])[sp].[moe](A)}$$$$ (last 3' nucleoside missing)	0 score 0-7
RNA1{[moe]([m5C])[sp].[moe](A)p.[moe](T)p.[moe](G)p.[moe](T)p.[moe](A)p.d(A)[sp].d(T)[sp].d([m5C])[sp].d(A)[sp].d([m5C])[sp].d(T)[sp].d(T)[sp].d(T)[sp].d([m5C])[sp].d(A)[sp].[moe](T)p.[moe]([m5C])[sp].[moe]([m5C])}$$$$ (last 3' nucleoside missing)	0 score 0-7
RNA1{[moe]([m5C])[sp].[moe](A)p.[moe](T)p.[moe](G)p.[moe](T)p.[moe](A)p.d(A)[sp].d([m5C])[sp].d([m5C])[sp].d(T)[sp].d(T)[sp].d(T)[sp].d(A)[sp].d(T)[sp].d(A)[sp].d([m5C])[sp].[moe](A)p.[moe](T)[sp].[moe](T)}$$$$ (last 3' nucleoside missing)	0 score 0-7
RNA1{[moe]([m5C])[sp].[moe](A)p.[moe](T)p.[moe](G)p.[moe](T)p.d(A)[sp].d(A)[sp].d(T)[sp].d([m5C])[sp].d(A)[sp].d([m5C])[sp].d(T)[sp].d(T)[sp].d(T)[sp].d([m5C])[sp].[moe](A)p.[moe](T)p.[moe]([m5C])[sp].[moe]([m5C])}$$$$ (last 3' nucleoside missing)	0 score 0-7
RNA1{[moe]([m5C])[sp].[moe](A)p.[moe](T)p.[moe](G)p.[moe](T)p.d(A)[sp].d(A)[sp].d([m5C])[sp].d([m5C])[sp].d(T)[sp].d(T)[sp].d(T)[sp].d(A)[sp].d(T)[sp].d(A)[sp].[moe]([m5C])p.[moe](A)p.[moe](T)[sp].[moe](T)}$$$$ (last 3' nucleoside missing)	0 score 0-7
RNA1{[moe]([m5C])[sp].[moe](A)p.[moe](T)p.[moe](G)p.[moe]([m5C])p.[moe](A)p.d(T)[sp].d(A)[sp].d(A)[sp].d(T)[sp].d([m5C])[sp].d([m5C])[sp].d([m5C])[sp].d(A)[sp].d(T)[sp].d(T)[sp].[moe](A)p.[moe](T)[sp].[moe](A)}$$$$ (last 3' nucleoside missing)	0 score 0-7
RNA1{[moe]([m5C])[sp].[moe](A)p.[moe](T)p.[moe](G)p.[moe]([m5C])p.d(A)[sp].d(T)[sp].d(A)[sp].d(A)[sp].d(T)[sp].d([m5C])[sp].d([m5C])[sp].d([m5C])[sp].d(A)[sp].d(T)[sp].[moe](T)p.[moe](A)p.[moe](T)[sp].[moe](A)}$$$$ (last 3' nucleoside missing)	0 score 0-7
RNA1{[moe]([m5C])[sp].[moe](A)p.[moe](T)p.[moe](G)p.d(T)[sp].d(A)[sp].d(A)[sp].d(T)[sp].d([m5C])[sp].d(A)[sp].d([m5C])[sp].d(T)[sp].d(T)[sp].d(T)[sp].[moe]([m5C])p.[moe](A)p.[moe](T)p.[moe]([m5C])[sp].[moe]([m5C])}$$$$ (last 3' nucleoside missing)	0 score 0-7
RNA1{[moe]([m5C])[sp].[moe](A)p.[moe](T)p.[moe](G)p.d(T)[sp].d(A)[sp].d(A)[sp].d([m5C])[sp].d([m5C])[sp].d(T)[sp].d(T)[sp].d(T)[sp].d(A)[sp].d(T)[sp].[moe](A)p.[moe]([m5C])p.[moe](A)p.[moe](T)[sp].[moe](T)}$$$$ (last 3' nucleoside missing)	0 score 0-7
RNA1{[moe]([m5C])[sp].[moe](A)p.[moe](T)p.[moe](G)p.d([m5C])[sp].d(A)[sp].d(T)[sp].d(A)[sp].d(A)[sp].d(T)[sp].d([m5C])[sp].d([m5C])[sp].d([m5C])[sp].d(A)[sp].[moe](T)p.[moe](T)p.[moe](A)p.[moe](T)[sp].[moe](A)}$$$$ (last 3' nucleoside missing)	0 score 0-7
RNA1{[moe]([m5C])[sp].[moe](A)p.[moe](T)p.[moe](T)p.[moe](T)p.[moe]([m5C])p.d(T)[sp].d(A)[sp].d(T)[sp].d(A)[sp].d(A)[sp].d([m5C])[sp].d(T)[sp].d([m5C])[sp].d(A)[sp].d(G)[sp].[moe]([m5C])p.[moe](A)[sp].[moe](A)}$$$$ (last 3' nucleoside missing)	0 score 0-7
RNA1{[moe]([m5C])[sp].[moe](A)p.[moe](T)p.[moe](T)p.[moe](T)p.d([m5C])[sp].d(T)[sp].d(A)[sp].d(T)[sp].d(A)[sp].d(A)[sp].d([m5C])[sp].d(T)[sp].d([m5C])[sp].d(A)[sp].[moe](G)p.[moe]([m5C])p.[moe](A)[sp].[moe](A)}$$$$ (last 3' nucleoside missing)	0 score 0-7
RNA1{[moe]([m5C])[sp].[moe](A)p.[moe](T)p.[moe](T)p.d(T)[sp].d([m5C])[sp].d(T)[sp].d(A)[sp].d(T)[sp].d(A)[sp].d(A)[sp].d([m5C])[sp].d(T)[sp].d([m5C])[sp].[moe](A)p.[moe](G)p.[moe]([m5C])p.[moe](A)[sp].[moe](A)}$$$$ (last 3' nucleoside missing)	0 score 0-7
RNA1{[moe]([m5C])[sp].[moe](A)p.[moe]([m5C])p.[moe](G)p.[moe](A)p.[moe]([m5C])p.d(A)[sp].d(T)[sp].d(A)[sp].d(T)[sp].d(T)[sp].d(T)[sp].d(T)[sp].d(T)[sp].d([m5C])[sp].d(T)[sp].[moe](A)p.[moe]([m5C])[sp].[moe](A)}$$$$ (last 3' nucleoside missing)	0.5 score 0-7
RNA1{[moe]([m5C])[sp].[moe](A)p.[moe]([m5C])p.[moe](G)p.[moe](A)p.d([m5C])[sp].d(A)[sp].d(T)[sp].d(A)[sp].d(T)[sp].d(T)[sp].d(T)[sp].d(T)[sp].d(T)[sp].d([m5C])[sp].[moe](T)p.[moe](A)p.[moe]([m5C])[sp].[moe](A)}$$$$ (last 3' nucleoside missing)	0 score 0-7
RNA1{[moe]([m5C])[sp].[moe](A)p.[moe]([m5C])p.[moe](G)p.[moe]([m5C])p.[moe](T)p.d(T)[sp].d(A)[sp].d([m5C])[sp].d(A)[sp].d(T)[sp].d([m5C])[sp].d(A)[sp].d(A)[sp].d(A)[sp].d([m5C])[sp].[moe](A)p.[moe](T)[sp].[moe]([m5C])}$$$$ (last 3' nucleoside missing)	0 score 0-7
RNA1{[moe]([m5C])[sp].[moe](A)p.[moe]([m5C])p.[moe](G)p.[moe]([m5C])p.d(T)[sp].d(T)[sp].d(A)[sp].d([m5C])[sp].d(A)[sp].d(T)[sp].d([m5C])[sp].d(A)[sp].d(A)[sp].d(A)[sp].[moe]([m5C])p.[moe](A)p.[moe](T)[sp].[moe]([m5C])}$$$$ (last 3' nucleoside missing)	0 score 0-7
RNA1{[moe]([m5C])[sp].[moe](A)p.[moe]([m5C])p.[moe](G)p.d(A)[sp].d([m5C])[sp].d(A)[sp].d(T)[sp].d(A)[sp].d(T)[sp].d(T)[sp].d(T)[sp].d(T)[sp].d(T)[sp].[moe]([m5C])p.[moe](T)p.[moe](A)p.[moe]([m5C])[sp].[moe](A)}$$$$ (last 3' nucleoside missing)	0 score 0-7
RNA1{[moe]([m5C])[sp].[moe](A)p.[moe]([m5C])p.[moe](G)p.d([m5C])[sp].d(T)[sp].d(T)[sp].d(A)[sp].d([m5C])[sp].d(A)[sp].d(T)[sp].d([m5C])[sp].d(A)[sp].d(A)[sp].[moe](A)p.[moe]([m5C])p.[moe](A)p.[moe](T)[sp].[moe]([m5C])}$$$$ (last 3' nucleoside missing)	0 score 0-7
RNA1{[moe]([m5C])[sp].[moe](G)p.[moe](A)p.[moe](A)p.[moe](T)p.[moe](T)p.d([m5C])[sp].d(T)[sp].d(A)[sp].d(T)[sp].d(T)[sp].d(T)[sp].d(T)[sp].d(A)[sp].d(T)[sp].d(A)[sp].[moe](A)p.[moe](A)[sp].[moe](T)}$$$$ (last 3' nucleoside missing)	2.33 score 0-7
RNA1{[moe]([m5C])[sp].[moe](G)p.[moe](A)p.[moe](A)p.[moe](T)p.d(T)[sp].d([m5C])[sp].d(T)[sp].d(A)[sp].d(T)[sp].d(T)[sp].d(T)[sp].d(T)[sp].d(A)[sp].d(T)[sp].[moe](A)p.[moe](A)p.[moe](A)[sp].[moe](T)}$$$$ (last 3' nucleoside missing)	1.67 score 0-7
RNA1{[moe]([m5C])[sp].[moe](G)p.[moe](A)p.[moe](A)p.d(T)[sp].d(T)[sp].d([m5C])[sp].d(T)[sp].d(A)[sp].d(T)[sp].d(T)[sp].d(T)[sp].d(T)[sp].d(A)[sp].[moe](T)p.[moe](A)p.[moe](A)p.[moe](A)[sp].[moe](T)}$$$$ (last 3' nucleoside missing)	1 score 0-7
RNA1{[moe]([m5C])[sp].[moe](G)p.[moe](T)p.[moe]([m5C])p.[moe](T)p.d([m5C])[sp].d(T)[sp].d(T)[sp].d(T)[sp].d([m5C])[sp].d(T)[sp].d(T)[sp].d(A)[sp].d(T)[sp].d(T)[sp].[moe](T)p.[moe]([m5C])p.[moe](T)[sp].[moe](G)}$$$$ (last 3' nucleoside missing)	1 score 0-7
RNA1{[moe]([m5C])[sp].[moe](G)p.[moe](T)p.[moe]([m5C])p.d(T)[sp].d([m5C])[sp].d(T)[sp].d(T)[sp].d(T)[sp].d([m5C])[sp].d(T)[sp].d(T)[sp].d(A)[sp].d(T)[sp].[moe](T)p.[moe](T)p.[moe]([m5C])p.[moe](T)[sp].[moe](G)}$$$$ (last 3' nucleoside missing)	1 score 0-7
RNA1{[moe]([m5C])[sp].[moe](T)p.[moe](A)p.[moe](T)[sp].d(T)[sp].d(T)[sp].d(T)[sp].d(A)[sp].d(T)[sp].d(A)[sp].d(A)[sp].d(A)[sp].[moe](T)p.[moe](G)p.[moe]([m5C])p.[moe]([m5C])[sp].[moe](G)}$$$$ (last 3' nucleoside missing)	0 score 0-7
